# According to patent US20170158776A1, “TREATMENT OF LUNG CANCER USING A COMBINATION OF AN ANTI-PD-1 ANTIBODY AND ANOTHER ANTI-CANCER AGENT” (Bristol-Myers Squibb Company, priority 2014, published 2017):
# Values joined by “and” are separate entries in the source; they are usually repeats but may differ in a detail not shown here. Identical values can stand only once.
# Experiments:
# [1] = system: heavily pretreated patients with advanced NSCLC; experiment: CA209-003 phase 1: nivolumab monotherapy, efficacy (RECIST 1.0, OS, subgroups, PD-L1); format: in vivo, human
# Procedure: Objective response rate (ORR) was analyzed according to select patient characteristics (age, gender, Eastern Cooperative Oncology Group performance status [ECOG PS], histology, number of prior therapies, prior tyrosine kinase inhibitor [TKI] therapy, epidermal growth factor receptor [EGFR] and Kirsten rat sarcoma viral oncogene homolog [KRAS] mutational status).
# PD-L1 expression in archived tumor samples was measured using the Dako immunohistochemistry (IHC) assay. Positive staining with this assay was defined as tumor membrane staining at any intensity, and was analyzed with cut-off values of 1% and 5% expression to assess PD-L1 positivity (Butte M J, et al.). Tumor PD-L1 expression was evaluated for potential association with clinical endpoints.
# [2] = system: pts with advanced NSCLC after first-line PT-based chemotherapy; design: species or system human; conditions: in vivo
# Procedure: Pts with no progression within 42 days of completing ≧4 cycles first-line PT-based chemotherapy (±BEV) were assigned to either nivolumab (N) 5 mg/kg IV Q3W+BEV 15 mg/kg IV Q3W (non-squamous [non-sq] pts only; n=12) or N 3 mg/kg IV Q2W monotherapy (sq arm [n===8] or non-sq arm [n=13]) until progression/unacceptable toxicity (treatment beyond progression allowed based on protocol-defined criteria). ORR was evaluated using RECIST 1.1.
substance,measurement,setting,value
nivolumab,Estimated Median DOR,[1]; 1 mg/kg,63.9 wks
same,Median OS,[1]; 1 mg/kg,9.2 mo
same,Median PFS,[1]; 1 mg/kg,1.8 mo
same,ORR,[1]; 1 mg/kg,3.0%
same,OS Rate 1-year,[1]; 1 mg/kg,32%
same,OS Rate 2-year,[1]; 1 mg/kg,12%
same,Estimated Median DOR,[1]; 3 mg/kg,74.0 wks
same,Median OS,[1]; 3 mg/kg,14.9 mo
same,Median PFS,[1]; 3 mg/kg,1.9 mo
same,ORR,[1]; 3 mg/kg,24% and 24.3%
same,OS Rate 1-year,[1]; 3 mg/kg,56%
same,OS Rate 2-year,[1]; 3 mg/kg,45%
same,Estimated Median DOR,[1]; 10 mg/kg,83.1 wks
same,Median OS,[1]; 10 mg/kg,9.2 mo
same,Median PFS,[1]; 10 mg/kg,3.7 mo
same,ORR,[1]; 10 mg/kg,20.3%
same,OS Rate 1-year,[1]; 10 mg/kg,40%
same,OS Rate 2-year,[1]; 10 mg/kg,19%
same,"of these, responses ongoing at the time of reporting",[1]; 5 of 6,83%
same,responders who discontinued for reasons other than disease progression and responded for >30 weeks after the last dose,[1]; 6/16,38%
same,Responses ongoing at the time of analysis,[1]; 10/22,45%
same,patients with ORs with response at first assessment (8 weeks),[1]; 11/22,50%
same,Estimated Median DOR,[1]; All doses,74 wks and 74.0 wks
same,Median OS,[1]; All doses,9.9 mo
same,Median PFS,[1]; All doses,2.3 mo
same,ORR,[1]; All doses,17%
same,OS Rate 1-year,[1]; All doses,42%
same,OS Rate 2-year,[1]; All doses,24%
same,Median OS (95% CI),"[1]; Non-squamous, 1 mg/kg","9.9 (5.3, 22.5) mo"
same,ORR,"[1]; Non-squamous, 1 mg/kg",5.6 (1/18) % (n/N)
same,OS Rate 1-year (95% CI),"[1]; Non-squamous, 1 mg/kg","36 (15, 58)"
same,OS Rate 2-year (95% CI),"[1]; Non-squamous, 1 mg/kg","15 (3, 36)"
same,Median OS (95% CI),"[1]; Non-squamous, 3 mg/kg","18.2 (5.2, NE) mo"
same,ORR,"[1]; Non-squamous, 3 mg/kg",26.3 (5/19) % (n/N)
same,OS Rate 1-year (95% CI),"[1]; Non-squamous, 3 mg/kg","62 (37, 80)"
same,OS Rate 2-year (95% CI),"[1]; Non-squamous, 3 mg/kg","48 (22, 69)"
same,Median OS (95% CI),"[1]; Non-squamous, 10 mg/kg","7.4 (4.5, 12.4) mo"
same,ORR,"[1]; Non-squamous, 10 mg/kg",18.9 (7/37) % (n/N)
same,OS Rate 1-year (95% CI),"[1]; Non-squamous, 10 mg/kg","36 (21, 52)"
same,OS Rate 2-year (95% CI),"[1]; Non-squamous, 10 mg/kg","15 (6, 29)"
same,Median OS (95% CI),"[1]; Non-squamous, All doses","10.1 mo and 10.1 (5.7, 13.7) mo"
same,ORR,"[1]; Non-squamous, All doses",17.6 (13/74) % (n/N)
same,OS Rate 1-year (95% CI),"[1]; Non-squamous, All doses","43 (32, 54)"
same,OS Rate 2-year (95% CI),"[1]; Non-squamous, All doses","23 (13, 34)"
same,ORR,"[1]; PD-L1+ (5% cut-off), Non-squamous",17 (3/18) % (n/N)
same,ORR,"[1]; PD-L1+ (5% cut-off), Squamous",13 (2/15) % (n/N)
same,Median OS,[1]; PD-L1+ tumors,7.8 months
same,Median PFS,[1]; PD-L1+ tumors,3.6 months
same,ORR,"[1]; PD-L1 cut-off 1%, Negative",17 (5/30) % (n/N)
same,ORR,"[1]; PD-L1 cut-off 1%, Positive",13 (5/38) % (n/N)
same,ORR,"[1]; PD-L1 cut-off 5%, Negative, all patients",14 (5/35) % (n/N)
same,ORR,"[1]; PD-L1 cut-off 5%, Positive, all patients",15 (5/33) % (n/N)
same,ORR,"[1]; PD-L1− (5% cut-off), Non-squamous",10 (2/21) % (n/N)
same,ORR,"[1]; PD-L1− (5% cut-off), Squamous",21 (3/14) % (n/N)
same,Median OS,[1]; PD-L1− tumors,10.5 months
same,Median PFS,[1]; PD-L1− tumors,1.8 months
same,Median OS (95% CI),"[1]; Squamous, 1 mg/kg","8.0 (2.4, 13.3) mo"
same,ORR,"[1]; Squamous, 1 mg/kg",0 (0/15) % (n/N)
same,OS Rate 1-year (95% CI),"[1]; Squamous, 1 mg/kg","27 (7, 51)"
same,OS Rate 2-year (95% CI),"[1]; Squamous, 1 mg/kg","9 (1, 32)"
same,Median OS (95% CI),"[1]; Squamous, 3 mg/kg","9.5 (5.3, NE) mo"
same,ORR,"[1]; Squamous, 3 mg/kg",22.2 (4/18) % (n/N)
same,OS Rate 1-year (95% CI),"[1]; Squamous, 3 mg/kg","49 (23, 71)"
same,OS Rate 2-year (95% CI),"[1]; Squamous, 3 mg/kg","41 (17, 64)"
same,Median OS (95% CI),"[1]; Squamous, 10 mg/kg","10.5 (4.9, 16.7) mo"
same,ORR,"[1]; Squamous, 10 mg/kg",23.8 (5/21) % (n/N)
same,OS Rate 1-year (95% CI),"[1]; Squamous, 10 mg/kg","43 (22, 62)"
same,OS Rate 2-year (95% CI),"[1]; Squamous, 10 mg/kg","22 (7, 42)"
same,Median OS (95% CI),"[1]; Squamous, All doses","9.2 mo and 9.2 (7.3, 12.5) mo"
same,ORR,"[1]; Squamous, All doses",16.7 (9/54) % (n/N)
same,OS Rate 1-year (95% CI),"[1]; Squamous, All doses","40 (27, 54)"
same,OS Rate 2-year (95% CI),"[1]; Squamous, All doses","24 (13, 37)"
same,patients maintaining SD for ≧48 weeks,[1]; across doses,5%
same,Any-grade treatment-related adverse events,[2],62%
same,grade 3 pleural effusion,[2],1 n
same,grade 3 pneumonitis,[2],2 n
same,pts discontinued due to treatment-related AEs,[2],Four
same,treatment-related grade 4 AEs,[2],No treatment-related grade 4 AEs were reported
